The values that follow come from publication PMC11566853, “Chemical genetic analysis of enoxolone inhibition of Clostridioides difficile toxin production reveals adenine deaminase and ATP synthase as antivirulence targets” (The Journal of Biological Chemistry, 2024).

This assay addresses T1, adenine deaminase (Ade) (Clostridioides difficile, UniProt A0A9R0BKJ2).
T1 construct: codon-optimized ade in pWL613a (pET28b derivative), N-terminal His-tag, expressed in E. coli BL21(DE3), Ni-NTA and Superdex 200
Kind of assay: surface plasmon resonance, His-captured protein. The class given is binding. A general note: SPR reads the build-up and loss of mass on a sensor chip optically.

T1 sequence (A0A9R0BKJ2 entry or part of it): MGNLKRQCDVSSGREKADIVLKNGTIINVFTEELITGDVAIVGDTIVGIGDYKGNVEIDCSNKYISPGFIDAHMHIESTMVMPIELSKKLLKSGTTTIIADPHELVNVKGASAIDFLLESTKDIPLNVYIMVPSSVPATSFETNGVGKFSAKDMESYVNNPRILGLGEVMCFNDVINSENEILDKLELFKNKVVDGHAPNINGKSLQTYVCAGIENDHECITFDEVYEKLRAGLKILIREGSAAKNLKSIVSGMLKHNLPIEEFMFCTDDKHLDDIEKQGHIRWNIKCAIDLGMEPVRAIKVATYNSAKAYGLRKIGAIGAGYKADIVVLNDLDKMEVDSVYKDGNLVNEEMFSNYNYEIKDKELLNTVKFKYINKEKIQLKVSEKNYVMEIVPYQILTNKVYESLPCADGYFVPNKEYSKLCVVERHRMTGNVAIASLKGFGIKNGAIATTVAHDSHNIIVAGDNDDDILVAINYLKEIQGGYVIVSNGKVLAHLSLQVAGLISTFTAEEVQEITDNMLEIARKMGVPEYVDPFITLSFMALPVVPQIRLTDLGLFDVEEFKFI

Broadly, the Kd is the concentration at which binding is half-saturated. `Clc1ncnc2[nH]cnc12` [6-chloropurine] gave an equilibrium dissociation constant (Kd) of 264 ± 42.9 µM.
The figure for `CC1(C)[C@@H](O)CC[C@]2(C)[C@H]3C(=O)C=C4[C@@H]5C[C@@](C)(C(=O)O)CC[C@]5(C)CC[C@@]4(C)[C@]3(C)CC[C@@H]12` [enoxolone] is 34.6 ± 13.4 µM.
